Results published in patent publication US11591341B2 (ALIGOS THERAPEUTICS, INC., priority 2019, dated 2023).

Test system: HBV
Experiment: HBV-DNA Antiviral Assay Using HepG2.117 Cells (intracellular HBV DNA by qPCR)
Type: cell-based, hepatitis B virus (genotype D)
Settings: Hepatitis B virus, HepG2.117
Protocol: The following assay procedure describes the HBV antiviral assay, using HepG2.117 cells, which carry a stably integrated genotype D HBV genome under the control of a Tet-off promoter, and intracellular HBV DNA quantification as endpoint. Cell viability is assessed in parallel by measuring the intracellular ATP content using ATPlite (Perkin Elmer).
On day 0, HepG2.117 cells (which are maintained in routine cell culture with doxycycline present in the medium at a final concentration of 1 μg/mL) were seeded in 96-well plates (white with clear bottom) at a density of 2.0×10^4 cells/well (0.1 mL/well) in medium without doxycycline to induce pgRNA transcription and subsequent formation of HBV particles. The cells were incubated at 37° C. and 5% CO2.
On day 1, medium was removed from each well, the test articles were diluted in culture medium without doxcycyline and 100 μL was added to cell culture wells (9 concentrations, 4-fold dilution). For each plate, 6 untreated (merely DMSO) wells were included. The final concentration of DMSO in the culture medium was 2%. Each plate was prepared in duplicate (one for HBV DNA extraction, one for ATPlite measurement). The cells were incubated at 37° C. and 5% CO2 for 3 days.
On day 4, cell viability was assessed using ATPlite and cell lysates were prepared for HBV DNA extraction and subsequent quantification by qPCR.
Medium was removed from each well and 100 μL of 0.33% NP-40 in H2O was added to each well. Plates were sealed, incubated at 4° C. for 5 mins, vortexed extensively and centrifuged briefly. Next, 35 μL of lysate was added to 65 μL QuickExtract DNA Extraction Solution (Epicentre) in a PCR plate for each well. PCR plate was incubated at 65° C. for 6 mins, 98° C. for 2 mins and finally cooled to 4° C. HBV DNA was then quantified by qPCR with HBV-specific primers and probes as specified in Table 3 using the Bio-Rad SSOAdvanced Universal Probes Supermix on a CFX96 machine (Bio-Rad). The PCR cycle program consisted of 95° C. for 3 mins, followed by 40 cycles at 95° C. for 10 sec and 60° C. for 30 sec.
A DNA standard was prepared by dilution of an IDT gBlock corresponding to the amplicon with concentrations ranging from 10^2 to 10^8 copies/input (i.e. per 4 μL) and used to generate a standard curve by plotting Cq values vs. HBV DNA standard concentration. The quantity of HBV DNA in each sample was determined by interpolating from the standard curve.
Cell viability was calculated as follows: % Cell viability=(luminescence value of test sample)/(average luminescence value of 2% DMSO control)×100%. HBV DNA inhibition was calculated as follows: 100−(HBV DNA copy number of test sample)/(average HBV DNA copy number of 2% DMSO control)×100%. No normalization to entecavir was required due to the excellent dynamic window of this assay. The CC50, EC50 and EC90 values were determined by dose-response curves fitted by GraphPad Prism using “log (agonist) vs. response—Variable slope”.

Structure (SMILES) | EC50 [nM]
CC(NC(=O)c1c2n(c(=O)n1-c1ccc(OC3CC3)cc1)CCN(C(=O)c1ccc(Br)c(Cl)c1)C2)c1ccc(C#N)cc1F (racemic) [Example 340, 7-(4-bromo-3-chloro-benzoyl)-2-[4-(cyclopropoxy)phenyl]-3-oxo-N-[rac-(1S)-1-(4-cyano-2-fluoro-phenyl)ethyl]-6,8-dihydro-5H-imidazo[1,5-a]pyrazine-1-carboxamide] | 100 to 500
C[C@@H](NC(=O)c1c2n(c(=O)n1-c1ccc(OC3CC3)cc1)CCN(C(=O)c1ccc(Br)c(Cl)c1)C2)c1ccc(C#N)cc1F (racemic) [Example 341, 7-(4-bromo-3-chloro-benzoyl)-2-[4-(cyclopropoxy)phenyl]-3-oxo-N-[rac-(1R)-1-(4-cyano-2-fluoro-phenyl)ethyl]-6,8-dihydro-5H-imidazo[1,5-a]pyrazine-1-carboxamide] | 500 to 5000
CC(NC(=O)c1c2n(c(=O)n1-c1ccc(OCC(F)(F)F)cc1)CCN(C(=O)c1ccc(Br)c(Cl)c1)C2)c1ccc(OC2COC2)cc1F (racemic) [Example 348, 7-(4-bromo-3-chloro-benzoyl)-3-oxo-N-[rac-(1R)-1-[2-fluoro-4-(oxetan-3-yloxy)phenyl]ethyl]-2-[4-(2,2,2-trifluoroethoxy)phenyl]-6,8-dihydro-5H-imidazo[1,5-a]pyrazine-1-carboxamide] | 500 to 5000
C[C@H](NC(=O)c1c2n(c(=O)n1-c1ccc(OC3CC3)cc1)CCN(C(=O)c1ccc(Br)c(Cl)c1)C2)c1ccc(OCC(N)=O)cc1-n1cccn1 (racemic) [Example 378, 7-(4-bromo-3-chloro-benzoyl)-2-[4-(cyclopropoxy)phenyl]-3-oxo-N-[rac-(1S)-1-[4-(2-amino-2-oxo-ethoxy)-2-pyrazol-1-yl-phenyl]ethyl]-6,8-dihydro-5H-imidazo[1,5-a]pyrazine-1-carboxamide] | > 5000
CC(NC(=O)c1c2n(c(=O)n1-c1ccc(OC3CC3)cc1)CCN(C(=O)c1ccc(Br)c(Cl)c1)C2)c1ccc(OCC(N)=O)cc1-n1cccn1 (racemic) [Example 379, 7-(4-bromo-3-chloro-benzoyl)-2-[4-(cyclopropoxy)phenyl]-3-oxo-N-[rac-(1R)-1-[4-(2-amino-2-oxo-ethoxy)-2-pyrazol-1-yl-phenyl]ethyl]-6,8-dihydro-5H-imidazo[1,5-a]pyrazine-1-carboxamide] | > 5000
CC(NC(=O)c1c2n(c(=O)n1-c1ccc(OC3CC3)cc1)CCN(C(=O)c1ccc(Br)c(Cl)c1)C2)c1cccc2nccnc12 (racemic) [Example 382, 7-(4-bromo-3-chloro-benzoyl)-2-[4-(cyclopropoxy)phenyl]-3-oxo-N-[rac-(1S)-1-quinoxalin-5-ylethyl]-6,8-dihydro-5H-imidazo[1,5-a]pyrazine-1-carboxamide] | < 100
C[C@@H](NC(=O)c1c2n(c(=O)n1-c1ccc(OC3CC3)cc1)CCN(C(=O)c1ccc(Br)c(Cl)c1)C2)c1cccc2nccnc12 (racemic) [Example 383, 7-(4-bromo-3-chloro-benzoyl)-2-[4-(cyclopropoxy)phenyl]-3-oxo-N-[rac-(1R)-1-quinoxalin-5-ylethyl]-6,8-dihydro-5H-imidazo[1,5-a]pyrazine-1-carboxamide] | 100 to 500
CC(Oc1ccc(CNC(=O)c2c3n(c(=O)n2-c2ccc(OC4CC4)cc2)CCN(C(=O)c2ccc(Br)c(Cl)c2)C3)c(F)c1)C(N)=O (racemic) [Example 394, 7-(4-bromo-3-chloro-benzoyl)-2-[4-(cyclopropoxy)phenyl]-N-[[2-fluoro-4-[rac-(1S)-2-amino-1-methyl-2-oxo-ethoxy]phenyl]methyl]-3-oxo-6,8-dihydro-5H-imidazo[1,5-a]pyrazine-1-carboxamide] | 100 to 500
C[C@@H](Oc1ccc(CNC(=O)c2c3n(c(=O)n2-c2ccc(OC4CC4)cc2)CCN(C(=O)c2ccc(Br)c(Cl)c2)C3)c(F)c1)C(N)=O (racemic) [Example 406, 7-(4-bromo-3-chloro-benzoyl)-2-[4-(cyclopropoxy)phenyl]-N-[[2-fluoro-4-[rac-(1R)-2-amino-1-methyl-2-oxo-ethoxy]phenyl]methyl]-3-oxo-6,8-dihydro-5H-imidazo[1,5-a]pyrazine-1-carboxamide] | 100 to 500
COc1ccc(C(C)NC(=O)c2c3n(c(=O)n2-c2ccc(-n4cccn4)cc2)CCN(C(=O)c2ccc(Br)c(Cl)c2)C3)c(F)c1 (racemic) [Example 413, 7-(4-bromo-3-chloro-benzoyl)-3-oxo-2-(4-pyrazol-1-ylphenyl)-N-[rac-(1R)-1-(2-fluoro-4-methoxy-phenyl)ethyl]-6,8-dihydro-5H-imidazo[1,5-a]pyrazine-1-carboxamide] | < 100
C[C@@H]1CN(c2ccc(-n3c(C(=O)NCc4ccccc4)c4n(c3=O)CCN(C(=O)c3ccc(Br)c(Cl)c3)C4)cc2)CCO1 (racemic) [Example 416, N-benzyl-7-(4-bromo-3-chloro-benzoyl)-3-oxo-2-[4-[rac-(2R)-2-methylmorpholin-4-yl]phenyl]-6,8-dihydro-5H-imidazo[1,5-a]pyrazine-1-carboxamide] | 100 to 500
O=C(NCc1ccccc1)c1c2n(c(=O)n1-c1ccc(N3CCO[C@H](C(F)(F)F)C3)cc1)CCN(C(=O)c1ccc(Br)c(Cl)c1)C2 (racemic) [Example 417, N-benzyl-7-(4-bromo-3-chloro-benozyl)-3-oxo-2-[4-[rac-(2S)-2-(trifluoromethyl)morpholin-4-yl]phenyl]-6,8-dihydro-5H-imidazo[1,5-a]pyrazine-1-carboxamide] | 100 to 500
COc1ccc(C(C)NC(=O)c2c3n(c(=O)n2-c2ccc(OC4CC4)cc2)CCN(C(=O)c2ccc(Br)c(Cl)c2)C3)c(F)c1 (racemic) [Example 420, 7-(4-bromo-3-chloro-benzoyl)-2-[4-(cyclopropoxy)phenyl]-3-oxo-N-[rac-(1R)-1-(2-fluoro-4-methoxy-phenyl)ethyl]-6,8-dihydro-5H-imidazo[1,5-a]pyrazine-1-carboxamide] | < 100
COc1ccc([C@H](C)NC(=O)c2c3n(c(=O)n2-c2ccc(OC4CC4)cc2)CC(C)N(C(=O)c2ccc(Br)c(Cl)c2)C3)cc1 (mixture of isomers) [Example 437, (6RS)-7-(4-bromo-3-chloro-benzoyl)-2-[4-(cyclopropoxy)phenyl]-N-[(1S)-1-(4-methoxyphenyl)ethyl]-6-methyl-3-oxo-6,8-dihydro-5H-imidazo[1,5-a]pyrazine-1-carboxamide] | 500 to 5000
CC1Cn2c(c(C(=O)NCc3ccccc3-n3cc(F)cn3)n(-c3ccc(OC4CC4)cc3)c2=O)CN1C(=O)c1ccc(Br)c(Cl)c1 (racemic) [Example 440, rac-(6S)-7-(4-bromo-3-chloro-benzoyl)-2-[4-(cyclopropoxy)phenyl]-N-[[2-(4-fluoropyrazol-1-yl)phenyl]methyl]-6-methyl-3-oxo-6,8-dihydro-5H-imidazo[1,5-a]pyrazine-1-carboxamide] | < 100
C[C@@H]1Cn2c(c(C(=O)NCc3ccccc3-n3cc(F)cn3)n(-c3ccc(OC4CC4)cc3)c2=O)CN1C(=O)c1ccc(Br)c(Cl)c1 (racemic) [Example 441, rac-(6R)-7-(4-bromo-3-chloro-benzoyl)-2-[4-(cyclopropxy)phenyl]-N-[[2-(4-fluoropyrazol-1-yl)phenyl]methyl]-6-methyl-3-oxo-6,8-dihydro-5H-imidazo[1,5-a]pyrazine-1-carboxamide] | 100 to 500
COc1ccc([C@@H](C)NC(=O)c2c3n(c(=O)n2-c2ccc(OC4CC4)cc2)CC(C)N(C(=O)c2ccc(Br)c(Cl)c2)C3)cc1 (mixture of isomers) [Example 449, (6RS)-7-(4-bromo-3-chloro-benzoyl)-2-[4-(cyclopropoxy)phenyl]-N-[(1R)-1-(4-methoxyphenyl)ethyl]-6-methyl-3-oxo-6,8-dihydro-5H-imidazo[1,5-a]pyrazine-1-carboxamide] | 500 to 5000
COc1ccc([C@@H](C)NC(=O)c2c3n(c(=O)n2-c2ccc(OC4CC4)cc2)C[C@H](C)N(C(=O)c2ccc(Br)c(Cl)c2)C3)cc1 (racemic) [Example 450, (6SR)-7-(4-bromo-3-chloro-benzoyl)-2-[4-(cyclopropoxy)phenyl]-N-[(1R)-1-(4-methoxyphenyl)ethyl]-6-methyl-3-oxo-6,8-dihydro-5H-imidazo[1,5-a]pyrazine-1-carobxamide] | < 100
